Assay results from patent US10968222B2, “2-azabicyclo hexane JAK inhibitor compound” (THERAVANCE BIOPHARMA R&D IP, LLC, priority 2018, dated 2021).

What was measured:
PKAC-ALPHA = target: T1, PKAC-ALPHA (Homo sapiens, UniProt P17612); assay: Kinome screen, PKAC-ALPHA; assay type: binding; settings: screened at 1 μM
T1 construct: made in house; host or cells: E. coli BL21-derived host (T7 phage) or HEK-293 cells
Description: (§1) Compounds 1 and C-1 were screened against other kinases to evaluate their selectivity profile.
(§2) Kinase-tagged T7 phage strains were grown in parallel in 24-well blocks in an E. coli host derived from the BL21 strain. E. coli were grown to log-phase and infected with T7 phage from a frozen stock (multiplicity of infection=0.4) and incubated with shaking at 32° C. until lysis (90-150 minutes). The lysates were centrifuged (6,000×g) and filtered (0.2 μm) to remove cell debris. The remaining kinases were produced in HEK-293 cells and subsequently tagged with DNA for qPCR detection.
(§3) Streptavidin-coated magnetic beads were treated with biotinylated small molecule ligands for 30 minutes at room temperature to generate affinity resins for kinase assays. The liganded beads were blocked with excess biotin and washed with blocking buffer (SeaBlock (Pierce), 1% BSA, 0.05% Tween 20, 1 mM DTT) to remove unbound ligand and to reduce non-specific phage binding. Binding reactions were assembled by combining kinases, liganded affinity beads, and test compounds in 1× binding buffer (20% SeaBlock, 0.17×PBS, 0.05% Tween 20, 6 mM DTT). Test compounds were prepared as 40× stocks in 100% DMSO and directly diluted into the assay. All reactions were performed in polypropylene 384-well plates in a final volume of 0.04 ml. […] The kinase concentration in the eluates was measured by qPCR. […]

JAK2 = target: T2, JAK2 (Homo sapiens, UniProt O60674); assay: Biochemical JAK kinase assay (LanthaScreen), JAK2; settings: converted from pIC50 by Cheng-Prusoff; 3 μM ATP; read-out: JAK 2 pKi (converted)
T2 construct: GST; purchased Life Technologies
Description: (§4) A panel of four LanthaScreen JAK biochemical assays (JAK1, 2, 3 and Tyk2) were carried in a common kinase reaction buffer (50 mM HEPES, pH 7.5, 0.01% Brij-35, 10 mM MgCl2, and 1 mM EGTA). Recombinant GST-tagged JAK enzymes and a GFP-tagged STAT1 peptide substrate were obtained from Life Technologies.
(§5) Serially diluted compound was pre-incubated with each of the four JAK enzymes and the substrate in white 384-well microplates (Corning) at ambient temperature for 1 h. ATP was subsequently added to initiate the kinase reactions in 10 μL total volume, with 1% DMSO. […] The plates were allowed to incubate at ambient temperature for 1 h before being read on the EnVision reader (Perkin Elmer). Emission ratio signals (520 nm/495 nm) were recorded and utilized to calculate the percent inhibition values based on DMSO and background controls.
(§6) For dose-response analysis, percent inhibition data were plotted vs. compound concentrations, and IC50 values were determined from a 4-parameter robust fit model with the Prism software (GraphPad Software). Results were expressed as pIC50 (negative logarithm of IC50) and subsequently converted to pKi (negative logarithm of dissociation constant, Ki) using the Cheng-Prusoff equation.

[1] = system: IL-6 induced pSTAT3 in rat retina/choroid; assay: Pharmacodynamic assay: inhibition of IL6-induced pSTAT3 in rats; assay type: in vivo; settings: rat retina/choroid homogenates; 45 μg intravitreal dose; one hour after injection
Description: The ability of a single intravitreal administration of test compound to inhibit IL-6 induced pSTAT3 was measured in rat retina/choroid homogenates.
A solution formulation was prepared by dissolving compound 1 in 1% HPMC E5+15% HPβCD, pH7 to attain a target concentration of […]. Female Lewis rats were intravitreally (IVT) dosed (5 μL per eye) with either the vehicle, vehicle plus rat IL-6 (Peprotech; 0.5 μg), or a combination of IL-6 plus compound (0.5 μg IL-6 and 45 μg compound 1). Ocular tissues were dissected one hour after the IVT injection. The retina/choroid tissues were homogenized and pSTAT3 levels were measured using an AlphaLisa (PerkinElmer). The percent inhibition of IL-6-induced pSTAT3 was calculated in comparison to the vehicle and IL-6 groups.

PAK4 = target: T3, PAK4 (Homo sapiens, UniProt O96013); assay: Kinome screen, PAK4; assay type: binding; settings: screened at 1 μM
T3 construct: made in house; host or cells: E. coli BL21-derived host (T7 phage) or HEK-293 cells
Description: as §1, §2, §3

Tyk2 = target: T4, Tyk2 (Homo sapiens, UniProt P29597); assay: Biochemical JAK kinase assay (LanthaScreen), Tyk2; settings: converted from pIC50 by Cheng-Prusoff; 10 μM ATP; read-out: Tyk 2 pKi (converted)
T4 construct: GST; purchased Life Technologies
Description: as §4, §5, §6

AURKA = target: T5, AURKA (Homo sapiens, UniProt O14965); assay: Kinome screen, AURKA; assay type: binding; settings: screened at 1 μM
T5 construct: made in house; host or cells: E. coli BL21-derived host (T7 phage) or HEK-293 cells
Description: as §1, §2, §3

KIT = target: T6, KIT (Homo sapiens, UniProt P10721); assay: Kinome screen, KIT; assay type: binding; settings: screened at 1 μM
T6 construct: made in house; host or cells: E. coli BL21-derived host (T7 phage) or HEK-293 cells
Description: as §1, §2, §3

SYK = target: T7, SYK (Homo sapiens, UniProt P43405); assay: Kinome screen, SYK; assay type: binding; settings: screened at 1 μM
T7 construct: made in house; host or cells: E. coli BL21-derived host (T7 phage) or HEK-293 cells
Description: as §1, §2, §3

JAK1 = target: T8, JAK1 (Homo sapiens, UniProt P23458); assay: Biochemical JAK kinase assay (LanthaScreen), JAK1; settings: converted from pIC50 by Cheng-Prusoff; 25 μM ATP; read-out: JAK 1 pKi (converted)
T8 construct: GST; purchased Life Technologies
Description: as §4, §5, §6

[2] = Lung and plasma pharmacokinetics in mice; assay type: in vivo, mouse; settings: BALB/c mice
Description: Plasma and lung concentrations of compound 1 and ratios thereof were determined in the following manner. BALB/c mice from Charles River Laboratories were used in the assay. Compound 1 was formulated in 20% propylene glycol in citrate buffer (pH 4) at a concentration of 0.324 mg/mL as a solution. 50 μL of the solution formulation was introduced into the trachea of a mouse by oral aspiration. At various time points (0.167, 2, 6 hr) post dosing, blood samples were removed via cardiac puncture and intact lungs were excised from the mice. Blood samples were centrifuged (Eppendorf centrifuge, 5804R) for 4 minutes at approximately 12,000 rpm at 4° C. to collect plasma. Lungs were padded dry, weighed, and homogenized in 0.6 mL sterile water. Plasma and lung concentrations of compound 1 were determined by LC-MS analysis against analytical standards constructed into a standard curve in the test matrix. […] The lung-to-plasma ratio was determined as the ratio of the lung AUC in μg hr/g to the plasma AUC in μg hr/mL (where AUC is conventionally defined as the area under the curve of test compound concentration vs. time).

T3 sequence (O96013 whole entry): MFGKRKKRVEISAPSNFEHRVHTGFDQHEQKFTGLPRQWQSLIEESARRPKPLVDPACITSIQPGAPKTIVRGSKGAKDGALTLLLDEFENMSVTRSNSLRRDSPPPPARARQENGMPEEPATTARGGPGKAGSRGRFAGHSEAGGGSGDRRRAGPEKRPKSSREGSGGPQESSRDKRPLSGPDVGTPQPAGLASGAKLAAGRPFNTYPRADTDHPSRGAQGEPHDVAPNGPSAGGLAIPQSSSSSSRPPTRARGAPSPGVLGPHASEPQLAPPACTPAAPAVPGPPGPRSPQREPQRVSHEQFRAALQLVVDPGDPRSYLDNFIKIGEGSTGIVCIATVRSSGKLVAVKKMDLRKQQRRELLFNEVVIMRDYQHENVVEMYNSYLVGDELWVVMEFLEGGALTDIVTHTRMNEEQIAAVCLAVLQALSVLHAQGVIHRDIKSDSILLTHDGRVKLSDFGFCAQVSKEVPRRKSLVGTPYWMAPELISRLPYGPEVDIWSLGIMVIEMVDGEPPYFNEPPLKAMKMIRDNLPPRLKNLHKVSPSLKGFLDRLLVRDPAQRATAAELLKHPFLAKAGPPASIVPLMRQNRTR
T2 sequence (O60674 whole entry): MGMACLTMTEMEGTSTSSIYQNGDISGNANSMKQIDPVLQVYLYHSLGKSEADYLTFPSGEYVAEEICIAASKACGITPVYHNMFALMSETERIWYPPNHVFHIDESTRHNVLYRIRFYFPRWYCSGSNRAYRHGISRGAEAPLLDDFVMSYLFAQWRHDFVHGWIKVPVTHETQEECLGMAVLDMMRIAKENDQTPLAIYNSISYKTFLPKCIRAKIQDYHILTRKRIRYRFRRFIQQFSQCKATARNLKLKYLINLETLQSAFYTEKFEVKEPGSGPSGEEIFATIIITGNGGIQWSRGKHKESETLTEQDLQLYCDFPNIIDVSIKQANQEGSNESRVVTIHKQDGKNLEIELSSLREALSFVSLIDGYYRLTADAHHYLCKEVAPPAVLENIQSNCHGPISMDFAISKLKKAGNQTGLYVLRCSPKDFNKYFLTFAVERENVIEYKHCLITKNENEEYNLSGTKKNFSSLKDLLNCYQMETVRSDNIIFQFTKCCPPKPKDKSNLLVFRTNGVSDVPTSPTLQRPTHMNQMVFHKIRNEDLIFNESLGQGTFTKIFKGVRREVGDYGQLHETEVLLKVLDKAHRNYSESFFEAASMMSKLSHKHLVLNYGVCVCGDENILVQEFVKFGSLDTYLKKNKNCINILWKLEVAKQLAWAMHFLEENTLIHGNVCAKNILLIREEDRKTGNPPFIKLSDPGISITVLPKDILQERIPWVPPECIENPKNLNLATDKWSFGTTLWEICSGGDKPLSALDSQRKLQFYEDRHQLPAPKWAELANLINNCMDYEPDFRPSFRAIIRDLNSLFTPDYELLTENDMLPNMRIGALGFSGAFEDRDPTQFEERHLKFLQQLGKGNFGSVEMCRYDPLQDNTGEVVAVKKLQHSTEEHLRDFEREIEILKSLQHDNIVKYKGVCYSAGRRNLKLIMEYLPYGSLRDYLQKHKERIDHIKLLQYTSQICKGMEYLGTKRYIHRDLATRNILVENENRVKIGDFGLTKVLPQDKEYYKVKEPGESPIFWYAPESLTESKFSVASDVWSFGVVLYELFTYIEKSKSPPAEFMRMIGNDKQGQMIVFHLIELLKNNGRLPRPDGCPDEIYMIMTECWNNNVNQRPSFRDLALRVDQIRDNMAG
T8 sequence (P23458 whole entry): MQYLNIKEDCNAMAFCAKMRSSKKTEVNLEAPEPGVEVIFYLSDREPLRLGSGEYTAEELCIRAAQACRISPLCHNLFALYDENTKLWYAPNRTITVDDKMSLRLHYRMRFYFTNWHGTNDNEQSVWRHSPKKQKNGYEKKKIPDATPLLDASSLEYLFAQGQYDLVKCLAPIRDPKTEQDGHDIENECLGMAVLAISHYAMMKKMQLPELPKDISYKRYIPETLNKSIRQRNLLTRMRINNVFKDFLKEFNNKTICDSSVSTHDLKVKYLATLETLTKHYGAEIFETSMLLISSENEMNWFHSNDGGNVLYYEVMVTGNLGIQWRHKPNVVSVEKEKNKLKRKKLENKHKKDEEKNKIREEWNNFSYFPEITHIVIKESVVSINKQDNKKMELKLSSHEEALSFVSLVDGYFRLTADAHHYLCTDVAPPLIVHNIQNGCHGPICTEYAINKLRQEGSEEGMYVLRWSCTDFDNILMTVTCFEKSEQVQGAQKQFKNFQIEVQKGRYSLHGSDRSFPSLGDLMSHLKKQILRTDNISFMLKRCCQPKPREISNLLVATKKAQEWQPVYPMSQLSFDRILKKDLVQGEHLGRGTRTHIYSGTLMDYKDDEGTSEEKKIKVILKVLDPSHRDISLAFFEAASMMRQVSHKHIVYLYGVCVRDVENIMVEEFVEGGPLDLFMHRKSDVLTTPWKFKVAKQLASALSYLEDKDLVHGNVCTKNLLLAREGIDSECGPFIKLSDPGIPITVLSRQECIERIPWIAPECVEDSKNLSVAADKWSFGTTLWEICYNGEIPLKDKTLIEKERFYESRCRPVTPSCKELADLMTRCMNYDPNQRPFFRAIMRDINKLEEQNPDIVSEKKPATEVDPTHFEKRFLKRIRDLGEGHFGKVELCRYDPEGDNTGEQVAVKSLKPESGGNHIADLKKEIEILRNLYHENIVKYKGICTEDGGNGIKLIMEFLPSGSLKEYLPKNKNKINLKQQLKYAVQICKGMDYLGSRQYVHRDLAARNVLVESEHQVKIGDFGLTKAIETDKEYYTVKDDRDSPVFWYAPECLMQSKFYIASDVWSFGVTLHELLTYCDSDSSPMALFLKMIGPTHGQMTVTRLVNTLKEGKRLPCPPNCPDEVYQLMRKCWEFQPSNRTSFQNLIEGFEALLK
T5 sequence (O14965 whole entry): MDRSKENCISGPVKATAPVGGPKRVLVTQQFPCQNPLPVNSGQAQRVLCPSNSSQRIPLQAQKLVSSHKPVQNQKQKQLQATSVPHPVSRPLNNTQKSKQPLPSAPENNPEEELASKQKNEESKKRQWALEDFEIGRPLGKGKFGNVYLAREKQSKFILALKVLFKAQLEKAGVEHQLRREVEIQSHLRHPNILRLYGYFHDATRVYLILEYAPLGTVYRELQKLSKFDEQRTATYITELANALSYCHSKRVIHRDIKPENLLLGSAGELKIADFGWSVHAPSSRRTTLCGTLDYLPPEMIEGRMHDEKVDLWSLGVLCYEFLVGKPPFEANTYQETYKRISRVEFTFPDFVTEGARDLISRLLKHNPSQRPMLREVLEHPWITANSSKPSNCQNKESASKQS
T6 sequence (P10721 26-976): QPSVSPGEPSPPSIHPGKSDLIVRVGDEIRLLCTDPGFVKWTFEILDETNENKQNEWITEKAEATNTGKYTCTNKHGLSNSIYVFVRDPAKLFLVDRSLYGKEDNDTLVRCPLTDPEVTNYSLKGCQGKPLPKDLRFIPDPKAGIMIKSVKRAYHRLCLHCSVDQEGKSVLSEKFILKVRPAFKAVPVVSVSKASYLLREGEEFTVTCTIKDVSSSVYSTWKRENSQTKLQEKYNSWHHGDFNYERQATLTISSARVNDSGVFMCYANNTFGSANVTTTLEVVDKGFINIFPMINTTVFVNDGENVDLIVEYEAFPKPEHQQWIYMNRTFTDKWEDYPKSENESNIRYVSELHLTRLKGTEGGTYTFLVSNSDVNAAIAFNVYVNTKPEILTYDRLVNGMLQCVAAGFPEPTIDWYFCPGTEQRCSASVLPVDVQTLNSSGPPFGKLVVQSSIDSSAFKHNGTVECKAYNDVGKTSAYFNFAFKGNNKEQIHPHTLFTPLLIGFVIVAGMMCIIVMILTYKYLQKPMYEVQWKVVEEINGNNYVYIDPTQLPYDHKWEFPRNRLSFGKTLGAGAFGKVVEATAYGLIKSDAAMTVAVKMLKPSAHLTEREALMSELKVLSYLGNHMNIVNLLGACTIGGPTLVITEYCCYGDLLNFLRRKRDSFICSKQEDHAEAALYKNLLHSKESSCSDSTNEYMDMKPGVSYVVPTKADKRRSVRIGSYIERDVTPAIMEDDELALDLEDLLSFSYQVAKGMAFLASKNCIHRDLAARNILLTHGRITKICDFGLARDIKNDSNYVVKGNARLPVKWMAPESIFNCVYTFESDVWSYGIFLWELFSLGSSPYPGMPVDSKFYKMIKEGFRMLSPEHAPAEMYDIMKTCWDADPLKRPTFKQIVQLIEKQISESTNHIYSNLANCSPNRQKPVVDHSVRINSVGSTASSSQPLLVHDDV

## CCc1cc(O)c(F)cc1-c1cc(F)c2c(-c3nc4c([nH]3)CCN(C(=O)[C@]35C[C@H]3CCN5)C4)n[nH]c2c1 [Compound 1, (1S,5R)-2-azabicyclo[3.1.0]hexan-1-yl(2-(6-(2-ethyl-5-fluoro-4-hydroxyphenyl)-4-fluoro-1H-indazol-3-yl)-6,7-dihydro-3H-imidazo[4,5-c]pyridin-5(4H)-yl)methanone]
PKAC-ALPHA
  inhibition at 1 µM: 22%
JAK2
  Ki: 0.0631 nM
[1]
  inhibition of IL-6-induced pSTAT3: 84%
PAK4
  inhibition at 1 µM: 41%
Tyk2
  Ki: 2.51 nM
AURKA
  inhibition at 1 µM: 26%
KIT
  inhibition at 1 µM: 83%
SYK
  inhibition at 1 µM: 44%
JAK1
  Ki: 0.126 nM
[2]; oral aspiration of 50 μL of 0.324 mg/mL solution
  lung AUC (0-6 hr): 43.5 µg·h/g
[2]; mouse, 16.2 µg/mouse, oral aspiration, lung AUC in μg hr/g to plasma AUC in μg hr/mL, read-out: lung-to-plasma AUC ratio
  Kp: 59.6
